Reference: publication PMC11219871, “Epigenetic-based differentiation therapy for Acute Myeloid Leukemia” (Nature Communications, 2024)
Where “and” joins values, the source holds several entries; their conditions need not be identical. Identical values can stand only once.

Key:
HL-60 = assay: CUT&RUN of BRD4, H3K27Ac and H3K9Ac; assay type: cell-based, human; details: HL-60, 12 h
Protocol: CUT&RUN was performed with the kit CUTANA ChIC/CUT&RUN (Epicypher, 14-1048) following the manufacturer’s instructions. Briefly, 0.5 million of HL-60 cells were harvested and resuspended in 100ul wash buffer [20 mM HEPES pH 7.5, 150 mM NaCl, 0.5 mM Spermidine, supplemented with Protease Inhibitor EDTA-Free tablet (Roche 11836170001)]. Activated Concanavalin A was incubated with cells at room temperature for 10 min to let the cells bind to the beads. For each target protein factor, 0.5 μg of BRD4 CUTANA CUT&RUN antibody (Cat No 13-2003, Epicypher), Acetyl-Histone H3 (Lys 9) (C5B11) rabbit monoclonal antibody diluted 1:50 (Cat No 9649 T, Cell Signaling) or Acetyl-Histone H3 (Lys 27) (D5E4) XP rabbit monoclonal antibody diluted 1:100 (Cat No 8173T, Cell Signaling) was added to each sample and incubated in the antibody buffer (wash buffer +0.01% Digitonin and 2 mM EDTA) overnight at 4 °C. Isotype control IgG was used as a negative control. The beads were then washed twice with digitonin buffer [wash buffer +0.01% Digitonin] and 2.5 μL pAG-MNase was added to each sample. After ten minutes of incubation at room temperature, excessive pAG-MNase was washed out by a two-time digitonin buffer wash. Then targeted chromatin was digested and released from cells by 2 h of incubation with the presence of 2 mM CaCl2 at 4 °C. After incubation with stop buffer [340 mM NaCl, 20 mM EDTA, 4 mM EGTA, 50 μg/mL RNase A, 50 μg/mL Glycogen] for 10 min at 37 °C the supernatant containing CUT&RUN-enriched DNA was purified using the CUTANA DNA Purification kit (Epicypher). Finally, Illumina sequencing libraries were prepared from 6 ng of purified CUT&RUN DNA using NEBNext UltraTM II DNA Library Prep Kit for Illumina, following the manufacturer’s instructions. For BRD4, some modifications were added following the protocol of Nan Liu (Harvard University; 10.17504/protocols.io.wvgfe3w). Libraries were sequenced using NEXTseq500 (Illumina).
The Cut&Run samples were analyzed using the CUT&RUN tools pipeline with default settings and no filtering for 120 bp fragments. Peak calling was performed on deduplicated reads with macs2 version 2.2.6 using the respective IgG samples as control, narrow peak calling and paired-end settings, and a threshold of q = 0.01.
Specifically, 12 chromatin states, based on the combination of 6 histone marks, for 38 AML samples were used[59]. The vast majority of the regions could be entirely annotated to a single chromatin state while some could be entirely annotated to a single chromatin state after the replacement of consecutive chromatin states with similar characteristics with one of them (i.e combination of Transcription Transition / Transcription Elongation / Weak Transcription to Transcription Transition or combination of Heterochromatin; Represesed/ Heterochromatin; Low Signal to Heterochromatin; Repressed etc). The regions that couldn’t be entirely annotated to a single chromatin state or simplified chromatin state were removed. […] We then calculated the percentage of each chromatin state taking into account the width of the regions. As background, we used all the regions of each AML sample and we calculated the percentage of the chromatin states similarly. Finally, we calculated the fold change of each chromatin state as a percentage in the sample to a percentage in the background AML sample.

Rag2-/-γc-/- mice = assay: Toxicity assay: hematological and liver parameters, liver histology; assay type: in vivo, mouse; details: for ALT (Counts (U/L)) / AST (Counts (U/L)) / Bilirubin (Counts (mg/dl)) / HDL (Counts (mmol/l)) / LCLC3 (Counts (mmol/l)) / UREA (Counts (mg/dl)) / Hematocrit (Counts (%)) / Hemoglobin (Counts (g/dl)) / PLT (Counts (K/O)) / RBC (Counts (K/O)) / WBC (Counts (K/O)): healthy Rag2-/-γc-/- mice, individual mice, 10 mg/kg; for ALT (Counts (U/L)) / AST (Counts (U/L)) / Bilirubin (Counts (mg/dl)) / HDL (Counts (mmol/l)) / LCLC3 (Counts (mmol/l)) / UREA (Counts (mg/dl)): 10 mg/kg i.p. daily for 3 weeks then 7-day washout; for Hematocrit (Counts (%)) / Hemoglobin (Counts (g/dl)) / PLT (Counts (K/O)) / RBC (Counts (K/O)) / WBC (Counts (K/O)): 10 mg/kg i.p. daily for 3 weeks
Protocol: After treating Rag2^−/−γc^−/− mice with i.p. […] Hematological and liver parameters were measured.
Hematological parameters, including white blood cells, red blood cells, platelet count, hemoglobin and hematocrit, were measured on a Hemavet Hematology Analyzer (Drew Scientific). Liver enzymes (albumin, alkaline phosphatase, aspartate transaminase, alanine transaminase), cholesterol, bilirubin, urea and bile acid levels were analyzed from mice serum using a C311 Cobas Analyzer (Roche Diagnostics).
Mice livers were fixed in paraformaldehyde at 4% for 6–8 h, washed twice with saline solution and stored in 70% ethanol. Samples were included in paraffin, and 3-µm serial sections were cut, deparaffinated, and stained with hematoxylin–eosin.

HDAC2 = HDAC2 (Homo sapiens, UniProt Q92769); assay: HDAC enzymatic assay, fluorescence-labeled substrate; assay type: biochemical
Sequence of HDAC2 (Q92769 whole entry): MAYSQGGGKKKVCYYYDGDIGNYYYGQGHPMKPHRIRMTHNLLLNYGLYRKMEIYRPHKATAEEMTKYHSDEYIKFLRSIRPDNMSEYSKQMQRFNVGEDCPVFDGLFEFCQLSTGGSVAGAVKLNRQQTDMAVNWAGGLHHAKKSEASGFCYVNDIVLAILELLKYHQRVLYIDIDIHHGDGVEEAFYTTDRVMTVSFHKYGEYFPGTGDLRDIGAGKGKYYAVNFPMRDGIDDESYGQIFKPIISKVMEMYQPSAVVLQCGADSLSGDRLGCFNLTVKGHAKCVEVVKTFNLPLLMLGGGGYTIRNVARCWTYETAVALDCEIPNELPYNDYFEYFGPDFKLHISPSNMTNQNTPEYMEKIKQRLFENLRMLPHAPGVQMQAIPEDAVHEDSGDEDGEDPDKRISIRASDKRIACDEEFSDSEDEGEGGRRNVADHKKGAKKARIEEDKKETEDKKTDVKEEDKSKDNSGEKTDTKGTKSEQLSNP

COc1cc2nc(-c3ccc(C)o3)cc(NCC3CCN(c4ncc(C(=O)NO)cn4)CC3)c2cc1OC [CM-444, 2-[4-[[[6,7-dimethoxy-2-(5-methyl-2-furyl)-4-quinolyl]amino]methyl]-1-piperidyl]pyrimidine-5-carbohydroxamic acid]
BRD4 CUT&RUN peaks (HL-60): 19570 | H3K9Ac CUT&RUN peaks (HL-60): 7568 | H3K27Ac CUT&RUN peaks (HL-60): 48991 | tolerability (Rag2-/-γc-/- mice; 10 mg/kg i.p. daily over 3 weeks, 1-week washout, Rag2-/-γc-/- mice): well tolerated | ALT (Counts (U/L)) (Rag2-/-γc-/- mice; Week 3): 11.5 U/L and 2 U/L and 10.5 U/L | AST (Counts (U/L)) (Rag2-/-γc-/- mice; Week 3): 32 U/L and 193 U/L and 55.5 U/L and 92 U/L | Bilirubin (Counts (mg/dl)) (Rag2-/-γc-/- mice; Week 3): 0 mg/dl (2×) and 0.15 mg/dl and 0.05 mg/dl | HDL (Counts (mmol/l)) (Rag2-/-γc-/- mice; Week 3): 1.85 mmol/l (2×) and 0.7 mmol/l and 2.75 mmol/l | LCLC3 (Counts (mmol/l)) (Rag2-/-γc-/- mice; Week 3): 0.15 mmol/l and 0.25 mmol/l (2×) and 0.1 mmol/l | UREA (Counts (mg/dl)) (Rag2-/-γc-/- mice; Week 3): 11.5 mg/dL and 19.7 mg/dL and 22.3 mg/dL and 21.65 mg/dL | ALT (Counts (U/L)) (Rag2-/-γc-/- mice; Week 4): 19.5 U/L and 11.7 U/L and 32.4 U/L and 21 U/L | AST (Counts (U/L)) (Rag2-/-γc-/- mice; Week 4): 128.4 U/L and 47.1 U/L and 73.2 U/L and 160.2 U/L | Bilirubin (Counts (mg/dl)) (Rag2-/-γc-/- mice; Week 4): 0.09 mg/dl (2×) and 0.06 mg/dl and 0.12 mg/dl | HDL (Counts (mmol/l)) (Rag2-/-γc-/- mice; Week 4): 2.61 mmol/l (2×) and 2.16 mmol/l and 2.58 mmol/l | LCLC3 (Counts (mmol/l)) (Rag2-/-γc-/- mice; Week 4): 0.3 mmol/l and 0.21 mmol/l (2×) and 0.24 mmol/l | UREA (Counts (mg/dl)) (Rag2-/-γc-/- mice; Week 4): 27.78 mg/dL and 27.48 mg/dL and 30.3 mg/dL and 24.12 mg/dL | Hematocrit (Counts (%)) (Rag2-/-γc-/- mice; 7d Washout): 52.1% and 56.9% and 53.3% and 53.1% | Hemoglobin (Counts (g/dl)) (Rag2-/-γc-/- mice; 7d Washout): 17.9 g/dL and 18 g/dL and 17.7 g/dL and 17.4 g/dL | PLT (Counts (K/O)) (Rag2-/-γc-/- mice; 7d Washout): 1470 K/O and 1489 K/O and 1608 K/O and 1482 K/O | RBC (Counts (K/O)) (Rag2-/-γc-/- mice; 7d Washout): 10.26 K/O and 10.79 K/O and 10.39 K/O and 10.19 K/O | WBC (Counts (K/O)) (Rag2-/-γc-/- mice; 7d Washout): 5.36 K/O and 7.2 K/O and 1.48 K/O and 3.02 K/O | Hematocrit (Counts (%)) (Rag2-/-γc-/- mice; Week 1): 47.7% and 44.8% and 42.1% and 46% | Hemoglobin (Counts (g/dl)) (Rag2-/-γc-/- mice; Week 1): 18 g/dL and 18.2 g/dL and 17.7 g/dL and 17.8 g/dL | PLT (Counts (K/O)) (Rag2-/-γc-/- mice; Week 1): 906 K/O and 830 K/O and 622 K/O and 877 K/O | RBC (Counts (K/O)) (Rag2-/-γc-/- mice; Week 1): 10.04 K/O and 9.45 K/O and 9.05 K/O and 9.73 K/O | WBC (Counts (K/O)) (Rag2-/-γc-/- mice; Week 1): 3.7 K/O and 3.24 K/O and 5.4 K/O and 2.32 K/O | Hematocrit (Counts (%)) (Rag2-/-γc-/- mice; Week 2): 50.2% and 53.9% and 53.4% and 41.4% | Hemoglobin (Counts (g/dl)) (Rag2-/-γc-/- mice; Week 2): 17.9 g/dL and 18.4 g/dL and 17.5 g/dL and 15.1 g/dL | PLT (Counts (K/O)) (Rag2-/-γc-/- mice; Week 2): 1887 K/O and 1805 K/O and 1778 K/O and 1467 K/O | RBC (Counts (K/O)) (Rag2-/-γc-/- mice; Week 2): 10.43 K/O and 10.72 K/O and 10.28 K/O and 8.62 K/O | WBC (Counts (K/O)) (Rag2-/-γc-/- mice; Week 2): 5.84 K/O and 4.8 K/O and 3.6 K/O and 7.26 K/O | Hematocrit (Counts (%)) (Rag2-/-γc-/- mice; Week 3): 43.7% and 49.1% and 49.8% and 51% | Hemoglobin (Counts (g/dl)) (Rag2-/-γc-/- mice; Week 3): 11.4 g/dL and 17.4 g/dL and 17.9 g/dL and 18.3 g/dL | PLT (Counts (K/O)) (Rag2-/-γc-/- mice; Week 3): 730 K/O and 1171 K/O and 1358 K/O and 1362 K/O | RBC (Counts (K/O)) (Rag2-/-γc-/- mice; Week 3): 8.57 K/O and 10.02 K/O and 10.36 K/O and 10.9 K/O | WBC (Counts (K/O)) (Rag2-/-γc-/- mice; Week 3): 1.16 K/O and 8.64 K/O and 6.22 K/O and 6.1 K/O | IC50 (HDAC2): 51 nM | inhibition at 10 µM (HDAC2; 10 µM, source data of Fig. 1B): 90%
